In patent publication US8901315B2, “Thienopyrazole derivative having PDE7 inhibitory activity” (Daiichi Sankyo Company, Limited, priority 2004, dated 2014) one finds IC50 data, which are given here for 22 compounds.

The term pIC50 denotes −log10 of the IC50, conventionally taken in molar units.

Test [1] addresses PDE 7 (phosphodiesterase VII) (Homo sapiens (Human), UniProt Q13946). Description: PDE 7 inhibiting effect (3H-cAMP hydrolysis, PDE 7 active fraction from MOLT-4 cells). Type of test: biochemical. Particulars: read-out: PDE7 IC50. How it is done: Methods for Evaluating the PDE 7 Inhibiting Effect
The PDE 7 (phosphodiesterase VII) inhibiting effect of the compounds of the present invention was performed by the following method, which was modified assay method described in Biochemical. Pharmacol. 48(6), 1219-1223 (1994). • (1) The active fraction of PDE 7 (phosphodiesterase VII) was obtained. That is, MOLT-4 (obtainable from ATCC as ATCC No. CRL-1582), which was cell line of human acute lymphoblastic lymphoma T cells, was incubated in RPMI1640 culture medium containing 10% fetal bovine serum to obtain 5×10^8 MOLT-4 cells. The cells were collected by centrifugation and suspended with 10 mL of buffer solution A [25 mM of tris-HCl, 5 mM of 2-mercaptoethanol, 2 mM of benzamidine, 2 mM of EDTA, 0.1 mM of 4-(2-aminoethyl)benzenesulfonyl hydrochloride; pH 7.5], then homogenized by Polytron® homogenizer. The homogenate were centrifuged under 25,000×G for 10 minutes at 4° C. The supernatant was separated and thus obtained supernatant was further centrifuged under 100,000×G for 60 minutes at 4° C., and then filtrated with 0.2 μm filter to obtain the soluble fraction. • (2) The obtained soluble fraction was filled in equilibrium HiTrap Q column (5 mL×2) with buffer solution A, and phosphodiesterase fractions were eluted by 300 mL of buffer solution A with linear gradient from 0 to 0.8 M NaCl concentration. 5 mL each of 60 eluents were collected, and each eluents were examined for cyclic AMP metabolic activities of phosphodiesterase. […] After the reaction, suspension of Sephadex®-QAE in 10 mM of HEPES-Na (pH 7.0) was added to the reaction mixture, and the mixture was left at rest for 5 minutes.

For test [2], the target named is PDE 4 (phosphodiesterase IV). Description: PDE 4 inhibiting effect (3H-cAMP hydrolysis, PDE 4 active fraction from Balb/c mouse liver). It counts as biochemical. Particulars: PDE 4 fraction from Balb/c mice liver, 0.064 μM cAMP, 2 hours at 25° C., read-out: PDE4 IC50. Here is the method: Methods for Evaluating the PDE 4 Inhibiting Effect
The PDE 4 (phosphodiesterase IV) inhibiting effect of the compounds of the present invention was performed by the following method, which was modified assay method described in Biochemical. […] That is, the livers obtained from three Balb/c mice (male, 12 weeks: obtainable from CLEA Japan, Inc.) were suspended with 30 mL of buffer solution B [20 mM of bis-tris, 5 mM of 2-mercaptoethanol, 2 mM of benzamidine, 2 mM of EDTA, 0.1 mM of 4-(2-aminoethyl)benzenesulfonyl hydrochloride, 50 mM of sodium acetate; pH 6.5], then homogenized by Polytron® homogenizer. The homogenate were centrifuged under 25,000×G for 10 minutes at 4° C. The supernatant was separated and thus obtained supernatant was further centrifuged under 100,000×G for 60 minutes at 4° C., and then filtrated with 0.2 μm filter to obtain the soluble fraction. • (2) The obtained soluble fraction was filled in equilibrium DEAE sepharose column (1×10 cm) with buffer solution B, and phosphodiesterase fractions were eluted by 120 mL of buffer solution B with linear gradient from 0.05 to 1M sodium acetate concentration. 5 mL each of 24 eluents were collected, and each eluents were examined for cyclic AMP metabolic activities of phosphodiesterase. […] After the reaction, suspension of Sephadex®-QAE in 10 mM of HEPES-Na (pH 7.0) was added to the reaction mixture, and the mixture was left at rest for 5 minutes.

Where [3] appears, read: PDE 7 fraction from MOLT-4 cells, 0.064 μM cAMP, 10 μM rolipram, 2 hours at 25° C.

The structures appear in SMILES notation. pIC50: −log10 of the molar value. Structures can show the parent of a compound that is named as a salt. Where two headings read alike, the source gives them in different places.

Sequence of PDE 7 (phosphodiesterase VII) (Q13946 whole entry): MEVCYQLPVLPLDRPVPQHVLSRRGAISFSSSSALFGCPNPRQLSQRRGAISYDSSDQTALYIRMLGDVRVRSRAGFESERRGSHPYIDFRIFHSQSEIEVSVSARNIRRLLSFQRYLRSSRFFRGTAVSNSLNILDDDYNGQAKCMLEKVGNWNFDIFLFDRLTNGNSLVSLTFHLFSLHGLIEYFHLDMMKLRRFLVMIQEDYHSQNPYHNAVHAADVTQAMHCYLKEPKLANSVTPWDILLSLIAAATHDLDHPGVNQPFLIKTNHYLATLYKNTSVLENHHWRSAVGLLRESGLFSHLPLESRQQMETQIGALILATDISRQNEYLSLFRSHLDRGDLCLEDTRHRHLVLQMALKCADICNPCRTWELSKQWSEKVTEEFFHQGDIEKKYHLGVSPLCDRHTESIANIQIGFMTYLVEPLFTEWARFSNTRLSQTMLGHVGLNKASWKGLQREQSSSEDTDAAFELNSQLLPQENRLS

With `COCC(=O)Nc1ccc(NC(=O)c2cc3c(C)nn(C4CCCCC4)c3s2)cc1` [Example 101, 1-Cyclohexyl-N-{4-[(methoxyacetyl)amino]phenyl}-3-methyl-1H-thieno[2,3-c]pyrazole-5-carboxamide], the pIC50 in test [1] (setting [3]) was 7.52; in test [2], 5.89.

For `COC(=O)c1ccc(NC(=O)c2cc3c(C)nn(C4CCCCC4)c3s2)cn1` [Example 102, Methyl 5-{[(1-Cyclohexyl-3-methyl-1H-thieno[2,3-c]pyrazol-5-yl)-carbonyl]amino}-2-pyridinecarboxylate], the figures for the pIC50 in test [1] (setting [3]) and in test [2] were 7.07 and 5.26, respectively.

In the case of `CNC(=O)c1ccc(NC(=O)c2cc3c(C)nn(C4CCCCC4)c3s2)cn1` [Example 104, 1-Cyclohexyl-3-methyl-N-{6-[(methylamino)carbonyl]-3-pyridinyl}-1H-thieno[2,3-c]pyrazole-5-carboxamide], the pIC50 was 7.24 in test [1] (setting [3]) and 5.82 in test [2].

Consider `Cc1nn(C2CCCCC2)c2sc(C(=O)Nc3ccc(N4CCN(C)CC4)cc3)cc12` [Example 106, 1-Cyclohexyl-3-methyl-N-[4-(4-methyl-1-piperazinyl)phenyl]-1H-thieno[2,3-c]pyrazole-5-carboxamide], for which the values for the pIC50 in test [1] (setting [3]) and in test [2] were 8.05 and 5.92, respectively.

For `Cc1nn(C2CCCCC2)c2sc(C(=O)Nc3ccc(N4CCN(C)CC4)cc3)cc12` [Example 107, 1-Cyclohexyl-3-methyl-N-[4-(4-methyl-1-piperazinyl)phenyl]-1H-thieno[2,3-c]pyrazole-5-carboxamide methanesulfonate], the pIC50 in test [1] (PDE 7 fraction from MOLT-4 cells, 0.064 μM cAMP, 10 μM rolipram, 2 hours at 25° C., methanesulfonate) was 7.77; in test [2] (methanesulfonate), 5.70.

Consider `Cc1nn(C2CCCCC2)c2sc(C(=O)Nc3ccc(N4CCN(C)CC4)nc3)cc12` [Example 109, 1-Cyclohexyl-3-methyl-N-[6-(4-methyl-1-piperazinyl)-3-pyridinyl]-1H-thieno[2,3-c]pyrazole-5-carboxamide di-HCl salt], for which the results for the pIC50 in test [1] and in test [2] were 7.82 and 6.00, respectively.

Consider `Cc1nn(C2CCCCC2)c2sc(C(=O)Nc3cccc(S(=O)(=O)N4CCN(C)CC4)c3)cc12` [Example 110, 1-Cyclohexyl-3-methyl-N-{3-[(4-methyl-piperazinyl)sulfonyl]-phenyl}-1H-thieno[2,3-c]pyrazole-5-carboxamide HCl salt], for which the pIC50 in test [1] (setting [3]) is 7.12; in test [2], 5.26.

As for `CNS(=O)(=O)c1cccc(NC(=O)c2cc3c(C)nn(C4CCCCC4)c3s2)c1` [Example 111, 1-Cyclohexyl-3-methyl-N-{3-[(methylamino)sulfonyl]phenyl}-1H-thieno[2,3-c]pyrazole-5-carboxamide], the negative logarithm of the IC50 (pIC50) in test [1] (setting [3]) is 8.00; in test [2] it was less than 4.52.

Consider `Cc1nn(C2CCCCCC2)c2sc(C(=O)Nc3ccc(N4CCN(C)CC4)cc3)cc12` [Example 112], for which the results for the pIC50 in test [1] (setting [3]) and in test [2] were 8.10 and 5.92, respectively.

Take `COc1cc(NC(=O)c2cc3c(C)nn(C4CCCCCC4)c3s2)ccc1NC(C)=O` [Example 115, N-[4-(Acetylamino)-3-methoxyphenyl]-1-cycloheptyl-3-methyl-1H-thieno[2,3-c]pyrazole-5-carboxamide]: the pIC50 was 7.40 in test [1] (setting [3]) and 5.82 in test [2].

In the case of `Cc1nn(C2CCCCC2)c2sc(C(=O)Nc3ccc(N(C)CCO)c(F)c3)cc12` [Example 125, 1-Cyclohexyl-N-{3-fluoro-4-[(2-hydroxyethyl)(methyl)amino]phenyl}-3-methyl-1H-thieno[2,3-c]pyrazole-5-carboxamide HCl salt], the pIC50 in test [1] (setting [3]) is 7.12; in test [2], 5.40.

Take `Cc1nn(C2CCCCC2)c2sc(C(=O)NC3CCN(C4CCOCC4)CC3)cc12` [Example 135, 1-Cyclohexyl-3-methyl-N-(1-tetrahydro-2H-pyran-4-yl-4-piperidinyl)-1H-thieno[2,3-c]pyrazole-5-carboxamide]: the results for the pIC50 in test [1] (setting [3]) and in test [2] were 7.28 and 5.13, respectively.

For `Cc1nn(C2CCCCC2)c2sc(C(=O)Nc3ccc(C4CCNCC4)cc3)cc12` [Example 141, 1-Cyclohexyl-3-methyl-N-[4-(4-piperidinyl)phenyl]-1H-thieno[2,3-c]pyrazole-5-carboxamide HCl salt], the negative-log IC50 (pIC50) in test [1] (setting [3]) was 7.66; in test [2], 5.80.

For `Cc1nn(C2CCCCC2)c2sc(C(=O)Nc3ccc(C4CCN(C)CC4)cc3)cc12` [Example 142, 1-Cyclohexyl-3-methyl-N-[4(1-methyl-4-piperidinyl)phenyl]-1H-thieno[2,3-c]pyrazole-5-carboxamide], the results for the pIC50 in test [1] (setting [3]) and in test [2] were 7.85 and 5.70, respectively.

For `COc1cc(NC(=O)c2cc3c(C)nn(C4CCCCC4)c3s2)ccc1C(=O)NCCO` [Example 150, 1-Cyclohexyl-N-(4-{[(2-hydroxyethyl)amino]carbonyl}-3-methoxyphenyl)-3-methyl-1H-thieno[2,3-c]pyrazole-5-carboxamide], the pIC50 is 7.35 in test [1] (setting [3]) and 6.15 in test [2].

As for `CNC(=O)c1ccc(NC(=O)c2cc3c(C)nn(C4CCCCC4)c3s2)cc1OC` [Example 152, 1-Cyclohexyl-N-{3-methoxy-4-[(methylamino)carbonyl]phenyl}-3-methyl-1H-thieno[2,3-c]pyrazole-5-carboxamide], the pIC50 was 7.07 in test [1] (setting [3]) and 5.52 in test [2].

For `Cc1nn(C2CCCCC2)c2sc(C(=O)Nc3ccc(N4CCN(C)CC4)c(F)c3)cc12` [Example 155, 1-Cyclohexyl-N-[3-fluoro-4-(4-methyl-1-piperazinyl)phenyl]-3-methyl-1H-thieno[2,3-c]pyrazole-5-carboxamide methanesulfonic acid salt], the negative-log IC50 (pIC50) is 8.00 in test [1] (setting [3]) and 5.82 in test [2].

As for `Cc1nn(C2CCCCC2)c2sc(C(=O)Nc3ccc(N4CCC(O)CC4)c(Cl)c3)cc12` [Example 162, N-[3-Chloro-4-(4-hydroxy-piperidinyl)phenyl]-1-cyclohexyl-3-methyl-1H-thieno[2,3-c]pyrazole-5-carboxamide], the pIC50 in test [1] (setting [3]) is 7.15; in test [2] it was 5.70.

Turning to `CNC1CCN(c2ccc(NC(=O)c3cc4c(C)nn(C5CCCCC5)c4s3)cc2F)CC1` [Example 163, 1-Cyclohexyl-N-{3-fluoro-4-[4-(methylamino)-1-piperidinyl]phenyl}-3-methyl-1H-thieno[2,3-c]pyrazole-5-carboxamide], the pIC50 in test [1] (setting [3]) was 7.85; in test [2], 6.05.

Regarding `CNC1CCN(c2ccc(NC(=O)c3cc4c(C)nn(C5CCCCC5)c4s3)cc2Cl)CC1` [Example 165, N-{3-Chloro-4-[4-(methylamino)-1-piperidinyl]phenyl}-1-cyclohexyl-3-methyl-1H-thieno[2,3-c]pyrazole-5-carboxamide], the pIC50 in test [1] (setting [3]) was 7.70; in test [2], 6.19.

`Cc1nn(C2CCCCC2)c2sc(C(=O)N[C@H]3CC[C@H](N4CCN(C)CC4)CC3)cc12` [Example 166, 1-Cyclohexyl-3-methyl-N-[trans-4-(4-methyl-1-piperazinyl)-cyclohexyl]-1H-thieno[2,3-c]pyrazole-5-carboxamide]: the values for the pIC50 in test [1] (setting [3]) and in test [2] were 7.80 and 5.89, respectively.

As for `Cc1nn(C2CCCCC2)c2sc(C(=O)N[C@H]3CC[C@H](N4CCCN(C)CC4)CC3)cc12` [Example 167, 1-Cyclohexyl-3-methyl-N-[trans-4-(4-methyl-1,4-diazepam-1-yl)-cyclohexyl]-1H-thieno[2,3-c]pyrazole-5-carboxamide], the pIC50 is 7.82 in test [1] (setting [3]) and 6.00 in test [2].
